Measured values from patent publication US12428389B2, “Diarylamide compound and application thereof” (Sunshine Lake Pharma Co., Ltd., priority 2019, dated 2025).
Read-outs that look alike come from different tables or passages of the source.

Tests used:
UT-B [1] = biological target: T1, UT-B (Mus musculus, UniProt Q8VHL0); experiment: erythrocyte lysis model, mouse erythrocytes; type: cell-based; conditions: concentration when the erythrocyte lysis rate of mice was 50%
T1 construct: endogenous in cells; host or cells: erythrocytes of C57 mice
T1 sequence (Q8VHL0 1-384): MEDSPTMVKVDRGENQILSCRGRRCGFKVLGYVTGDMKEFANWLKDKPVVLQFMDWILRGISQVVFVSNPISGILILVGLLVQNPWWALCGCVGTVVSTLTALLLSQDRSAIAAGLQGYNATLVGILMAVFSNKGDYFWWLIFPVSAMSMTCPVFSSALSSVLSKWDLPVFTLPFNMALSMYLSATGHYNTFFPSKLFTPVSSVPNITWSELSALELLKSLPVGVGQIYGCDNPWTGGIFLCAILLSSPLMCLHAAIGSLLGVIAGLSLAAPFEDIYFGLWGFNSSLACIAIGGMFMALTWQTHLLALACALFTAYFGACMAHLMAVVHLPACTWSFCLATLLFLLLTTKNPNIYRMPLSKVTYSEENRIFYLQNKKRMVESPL
Description: (§1) Erythrocyte lysis rate was calculated:
(§2) The formula for calculating the lysis rate percentage of erythrocytes, wherein Atest was the absorbance value of the test well, Aneg was the absorbance value of the negative control well, and Apos was the absorbance value of the positive control well. Erythrocyte lysis rate was calculated by measuring absorption at a wavelength of 710 nm.
(§3) The erythrocytes of three species of human, rats (SD rats) and mice (C57 mice) were taken, and urea transporter inhibitors were preliminarily screened from the above screening compound library by using the erythrocyte urea transporter inhibitor screening model.

human UT-B = biological target: T2, human UT-B (Homo sapiens, UniProt Q13336); experiment: erythrocyte lysis model, human erythrocytes; type: cell-based
T2 construct: endogenous in cells; host or cells: human erythrocytes
T2 sequence (Q13336 1-389): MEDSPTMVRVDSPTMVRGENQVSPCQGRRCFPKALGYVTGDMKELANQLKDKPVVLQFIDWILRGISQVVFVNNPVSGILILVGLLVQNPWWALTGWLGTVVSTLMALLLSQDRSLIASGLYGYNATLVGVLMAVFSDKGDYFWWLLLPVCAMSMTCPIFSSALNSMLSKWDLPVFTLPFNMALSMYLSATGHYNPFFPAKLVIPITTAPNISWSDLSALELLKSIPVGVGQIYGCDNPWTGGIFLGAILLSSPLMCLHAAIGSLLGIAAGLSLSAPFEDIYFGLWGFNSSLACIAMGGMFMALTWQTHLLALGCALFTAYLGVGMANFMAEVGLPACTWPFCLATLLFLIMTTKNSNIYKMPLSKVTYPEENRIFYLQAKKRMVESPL
Description: as §1, §2, §3

UT-B [2] = biological target: T3, UT-B (Rattus norvegicus, UniProt P97689); experiment: erythrocyte lysis model, rat erythrocytes; type: cell-based, rats; conditions: concentration when the erythrocyte lysis rate of rats was 50%; read-out: IC50 rats
T3 construct: endogenous in cells; host or cells: erythrocytes of SD rats
T3 sequence (P97689 1-384): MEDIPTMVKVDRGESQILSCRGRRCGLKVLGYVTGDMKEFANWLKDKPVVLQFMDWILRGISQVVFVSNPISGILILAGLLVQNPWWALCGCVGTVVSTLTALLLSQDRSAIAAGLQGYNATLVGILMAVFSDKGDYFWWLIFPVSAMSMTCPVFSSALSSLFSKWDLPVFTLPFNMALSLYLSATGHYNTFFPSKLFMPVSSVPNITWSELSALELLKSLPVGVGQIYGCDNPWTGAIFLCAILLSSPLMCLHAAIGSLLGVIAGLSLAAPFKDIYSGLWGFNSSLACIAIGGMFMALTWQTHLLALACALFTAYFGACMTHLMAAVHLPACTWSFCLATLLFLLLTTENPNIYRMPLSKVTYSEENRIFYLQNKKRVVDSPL
Description: as §1, §2, §3

[3] = class of the IC50 to human UT-B, read-out: Activity level
[4] = concentration when the erythrocyte lysis rate of human was 50%, read-out: IC50 human

Row | IC50 (UT-B [1]) | IC50 (human UT-B; [3]) | IC50 (human UT-B; [4]) | IC50 (UT-B [2]) | Compound
1 | 9.28 µM | < 10 µM | 3.09 µM | 1.85 µM | O=C(Nc1cccc(F)c1)c1ccc([N+](=O)[O-])o1 [Example 36, N-(3-fluorophenyl)-5-nitrofuran-2-carboxamide]
2 | 9.7 µM | < 10 µM | 3.94 µM | 1.76 µM | CC(C)NC(=O)c1cccc(NC(=O)c2ccc([N+](=O)[O-])o2)c1 [Example 56, N-(3-(isopropylcarbamoyl)phenyl)-5-nitrofuran-2-carboxamide]
3 | 7.38 µM | < 10 µM | 3.05 µM | 2.87 µM | O=C(CN1CCOCC1)Nc1ccc(NC(=O)c2ccc([N+](=O)[O-])o2)cc1 [Example 72, N-(4-(2-morpholinyl)acetamidophenyl)-5-nitrofuran-2-carboxamide]
4 | 8.51 µM | < 10 µM | 2.21 µM | 1.1 µM | Cn1ccc(NC(=O)c2ccc([N+](=O)[O-])o2)n1 [Example 21, N-(1-methyl-1H-pyrazol-3-yl)-5-nitrofuran-2-carboxamide]
5 | 2.79 µM | < 10 µM | 1.08 µM | 0.32 µM | CNC(=O)c1cc(C)cc(NC(=O)c2ccc([N+](=O)[O-])o2)c1 [Example 64, N-(5-methyl-3-methylcarbamoylphenyl)-5-nitrofuran-2-carboxamide]
6 | 9.59 µM | < 10 µM | 3.01 µM | 1.24 µM | CN(C)CCNCC(=O)Nc1ccc(NC(=O)c2ccc([N+](=O)[O-])o2)cc1 [Example 74, N-(4-((2-dimethylamino)ethylamino)acetamidophenyl)-5-nitrofuran-2-carboxamide]
7 | 33.2 µM | 10 to 20 µM | 15.8 µM | 9.64 µM | Cn1cc(NC(=O)c2ccc([N+](=O)[O-])o2)cn1 [Example 22, N-(1-methyl-1H-pyrazol-4-yl)-5-nitrofuran-2-carboxamide]
8 | 2.22 µM | < 10 µM | 3.29 µM | 0.87 µM | CNC(=O)c1cc(F)cc(NC(=O)c2ccc([N+](=O)[O-])o2)c1 [Example 66, N-(5-fluoro-3-methylcarbomoylphenyl)-5-nitrofuran-2-carboxamide]
9 | 4.32 µM | < 10 µM | 3.31 µM | 1.41 µM | O=C(NCCCN1CCOCC1)c1cccc(NC(=O)c2ccc([N+](=O)[O-])o2)c1 [Example 62, N-(3-((3-morpholinylpropyl)carbamoyl)phenyl)-5-nitrofuran-2-carboxamide]
10 | 5.41 µM | < 10 µM | 0.88 µM | 1.21 µM | CCNC(=O)c1cccc(NC(=O)c2ccc([N+](=O)[O-])o2)c1 [Example 55, N-(3-(ethylcarbamoyl)phenyl)-5-nitrofuran-2-carboxamide]
11 | 1.23 µM | < 10 µM | 1.7 µM | 1.76 µM | CNC(=O)c1cc(NC(=O)c2ccc([N+](=O)[O-])o2)ccc1C [Example 63, N-(4-methyl-3-methylcarbamoylphenyl)-5-nitrofuran-2-carboxamide]
12 | 10.5 µM | < 10 µM | 3.58 µM | 1.8 µM | Nc1cccc(NC(=O)c2ccc([N+](=O)[O-])o2)c1 [Example 34, N-(3-aminophenyl)-5-nitrofuran-2-carboxamide]
13 | 30.5 µM | < 10 µM | 3.66 µM | 3.91 µM | Cc1cccc(NC(=O)c2ccc([N+](=O)[O-])o2)c1 [Example 28, N-(3-methylphenyl)-5-nitrofuran-2-carboxamide]
14 | 5.69 µM | 20 to 80 µM | 22.8 µM | 34.3 µM | CNC(=O)c1cc(NC(=O)c2ccc([N+](=O)[O-])o2)cc(C(=O)NC)c1 [Example 68, N^1,N^3-dimethyl-5-(5-nitrofuran-2-carboxamide) isophthalamide]
15 | 0.5 µM | < 10 µM | 0.42 µM | 0.17 µM | NC(=O)c1cccc(NC(=O)c2ccc([N+](=O)[O-])o2)c1 [Example 44, N-(3-carbamoylphenyl)-5-nitrofuran-2-carboxamide]
16 | 4.38 µM | 20 to 80 µM | 23.9 µM | 18.3 µM | N-(4-fluoro-3-methylcarbomoylphenyl)-5-nitrofuran-2-carboxamide [Example 65]
17 | 9.65 µM | < 10 µM | 2.27 µM | 1.11 µM | COc1cccc(NC(=O)c2ccc([N+](=O)[O-])o2)c1 [Example 30, N-(3-methoxyphenyl)-5-nitrofuran-2-carboxamide]
18 | 2.63 µM | < 10 µM | 1.77 µM | 0.9 µM | O=C(NC1CCCCC1)c1cccc(NC(=O)c2ccc([N+](=O)[O-])o2)c1 [Example 58, N-(3-(cyclohexylcarbamoyl)phenyl)-5-nitrofuran-2-carboxamide]
